Biological target: Trace amine-associated receptor 1 (Mus musculus, UniProt Q923Y8)
Test: Binding Assay: Radioligand binding assay: The radioligand [3H]-rac-2-(1,2,3,4-tetrahydro-1-naphthyl)-2-imidazoline was used at a concentration equal to the calculated Kd value of 60 nM to give a total binding at around 0.1% of the total added radioligand concentration, and a specific binding which represented approximately 70-80% of the total binding.

Sequence of Trace amine-associated receptor 1 (Q923Y8 whole entry): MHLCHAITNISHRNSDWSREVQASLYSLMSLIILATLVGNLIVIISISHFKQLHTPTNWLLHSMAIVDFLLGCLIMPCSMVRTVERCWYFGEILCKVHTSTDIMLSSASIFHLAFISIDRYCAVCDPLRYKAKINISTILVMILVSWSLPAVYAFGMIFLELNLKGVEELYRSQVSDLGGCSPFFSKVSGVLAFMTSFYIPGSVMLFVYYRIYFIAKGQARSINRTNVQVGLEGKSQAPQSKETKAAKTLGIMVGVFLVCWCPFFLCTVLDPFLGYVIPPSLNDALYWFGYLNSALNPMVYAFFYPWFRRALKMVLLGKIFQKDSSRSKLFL

Ki [nM]	Compound
2.9	CN(Cc1cnc[nH]1)c1cccc(F)c1
7.2	CCN(Cc1cnc[nH]1)c1ccc(CCc2ccc(Cl)cc2)cc1
